Experimental data as given in patent US20210386367A1, “DEVICES AND SYSTEMS FOR GASTROINTESTINAL MICROBIOME DETECTION AND MANIPULATION” (Progenity, Inc., priority 2018, published 2021).
Values after ≈ are worked out from the molar mass of the structure shown. Where two headings read alike, the source gives them in different places.

Legend:
[1] = tested on: E. coli (ATCC 25922, ATCC 35218, MMX 1312); assay: Spontaneous mutation frequency assay; assay type: cell-based, Escherichia coli
Procedure: (§1) Initial values of the MIC were determined by agar dilution in accordance with guidelines from the Clinical and Laboratory Standards Institute (CLSI; (1) “Methods for Dilution Antimicrobial Susceptibility Tests for Bacteria That Grow Aerobically; Approved Standard; 11th ed.,” CLSI standard M07, 2018; (2) “Methods for Antimicrobial Susceptibility Testing of Anaerobic Bacteria; Approved Standard—Eighth Edition,” CLSI document M11-A8, 2012.).
(§2) The agar plates were prepared by mixing a ratio of 1.0 mL of concentrated drug to 49.0 mL of the appropriate molten (47° C.) agar; the drug-supplemented agar was mixed, poured into 15-by-150 mm petri dishes and allowed to solidify and dry at room temperature prior to inoculation. […] Each plate was allowed to cool at room temperature for at least 1 hr.
(§3) The isolates were streaked onto the appropriate agar medium and incubated for 20 hr (aerobes) or 48 hr (Bacteroides under anaerobic conditions). Using a sterile swab, several well-isolated colonies were removed and resuspended in sterile saline at a heavy cell density. Each plate was inoculated with 0.5 mL of the cell suspension (each test concentration was inoculated in duplicate). The target inoculum for each spontaneous mutation plate was 10^9-10 CFU. In addition, a portion of the inoculum from each isolate was enumerated by making dilutions, spreading on agar and counting colonies.
(§4) Once the inoculum was absorbed into the agar, the plates were incubated at 35° C. Aerobes were examined at 24 and 48 hr, and resulting colonies were counted. Bacteroides were incubated anaerobically for 48-72 hr in the anaerobe chamber and colonies were counted.
(§5) Colony counts from plates used to enumerate the initial inoculum density and from the resulting spontaneous mutation frequency test plates were determined. The inoculum size was calculated as CFU inoculated per plate. The spontaneous mutation frequency was calculated using the counts from duplicate spontaneous mutation assay test plates as follows:
(§6) If there were no colonies on the antibiotic selection plates, the spontaneous mutation frequency was reported as less than the frequency observed with one colony to indicate that the spontaneous mutation frequency was less than the limit of detection (one CFU). […] The mutation prevention concentration (MPC) was reported as the lowest concentration for which no mutants were selected.

[2] = tested on: Escherichia coli; assay: Broth microdilution MIC, 50 clinical isolates (incl. ESBL, one NDM-1); assay type: cell-based
Procedure: Minimal inhibitory concentration (MIC) values were determined by broth microdilution or agar dilution in accordance with guidelines from the Clinical and Laboratory Standards Institute (CLSI; (1) “Methods for Dilution Antimicrobial Susceptibility Tests for Bacteria That Grow Aerobically; Approved Standard; 11th ed.” CLSI standard M07-A11, 2018; (2) “Performance Standards for Antimicrobial Susceptibility Testing; Twenty-Eighth Informational Supplement,” CLSI document M100-S28, 2018; and (3) “Methods for Antimicrobial Susceptibility Testing of Anaerobic Bacteria; Approved Standard—Eighth Edition,” CLSI document M11-A8, 2012).
Tested aerobically by broth microdilution: • Escherichia coli, n=50 • Klebsiella spp., n=50 • Pseudomonas aeruginosa, n=50 • Streptococcus spp., n=50 • Staphylococcus aureus, n=50 • Enterococcus faecalis, n=50 • Enterobacter aerogenes, n=50 • Proteus mirabilis, n=50
Broth microdilution testing of aerobic bacteria was conducted in cation-adjusted Mueller Hinton broth (MHBII). For testing streptococci, lysed horse blood (LHB) was added to MHBII broth at a final concentration of 3%. Where LHB was used, it was added after filtering.
Broth microdilution susceptibility testing in 96-well microplates was conducted in accordance with CLSI methods (1) and (2). Automated liquid handlers were used to conduct serial dilutions and liquid transfers, including the Multidrop 384 (Labsystems, Helsinki, Finland), Biomek 2000, and the Biomek FX (Beckman Coulter, Fullerton, Calif.). All wells in columns 2 through 12 of a standard 96-well microdilution plate (Costar 3795) were filled with 150 μL of the appropriate diluent. Then, 300 μL of the test agents were added to the wells of column 1 of the plates at 100× the highest final concentration to be tested. Serial two-fold dilutions were made across the rows through column 11 using the Biomek 2000. The wells of column 12 contained no drug and served as the growth control wells. This plate served as the “mother plate” from which MIC assay plates or “daughter plates” were made.
The daughter plates were loaded with 190 μL per well of the appropriate medium using the Multidrop 384. The daughter plates were created using the Biomek FX which transferred 2 μL of drug solution from each well of a mother plate to each corresponding well of the daughter plate in a single step. A standardized inoculum of each test organism was prepared per CLSI methods (1) to equal a 0.5 McFarland standard, followed by a dilution of 1:20 for aerobes and 1:10 for anaerobes. The plates were then inoculated with 10 μL of the diluted inoculum using the Biomek 2000 from low to high drug concentration, resulting in a final concentration of approximately 5×10^5 CFU/mL per well. An un-inoculated plate was incubated in parallel for each medium for the purpose of assessing solubility of the drug in the test media.
Inoculated plates were stacked 3 or 4 high, covered with a sterile lid on the top plate, placed into boxes with CO2 planchets (streptococci) or plastic bags (all other isolates). Plates were incubated at 35° C. for 16-24 hr in ambient air for aerobes or for 42-48 hr in the anaerobic environment of the Bactron II anaerobe chamber (Sheldon Manufacturing Co.; Cornelius, Oreg.). Following incubation, the microplates were removed from the incubator and viewed from the bottom using a plate viewer. The MIC values were read and recorded as the lowest concentration of drug that inhibited visible growth of the organism as per CLSI methods (1) and (2).

[3] = tested on: S. pneumonia; assay: Spontaneous mutation frequency and mutation prevention concentration (MPC); assay type: cell-based; details: S. pneumoniae ATCC 49619
From the text: As used herein, “spontaneous mutation frequency” refers to the rate at which mutations arise in a bacterium that can lead to resistance to develop to an antimicrobial agent. “Mutation prevention concentration” or “MPC” refers to the lowest concentration of antimicrobial agent above which the selective proliferation of resistant mutants is expected to occur only rarely.

[4] = tested on: Streptococcus spp.; assay: Spontaneous mutation frequency assay; assay type: cell-based; details: selection at 4× and 8× MIC
Procedure: as §1, §2, §3, §4, §5, §6

[5] = tested on: E. coli MMX 1312; assay: Broth microdilution MIC (time-kill study); assay type: cell-based, Escherichia coli
[6] = ceftriaxone selection 8X MIC, 0.5 μg/mL

CO/N=C(\C(=O)N[C@@H]1C(=O)N2C(C(=O)O)=C(CSc3nc(=O)c(=O)[nH]n3C)CS[C@H]12)c1csc(N)n1 [ceftriaxone]
mutation rate ([1]; E. coli MMX 1312): indeterminate
Spontaneous Mutation Frequency ([1]; selection at 4× and 8× MIC, meropenem/ceftriaxone: isolates other than MMX 1312): ≤ 7.41×10^−9
% R [2]: Thirty-six
% S [2]: 64%
Mode [2]: 0.03 µg/mL
Cumulative percentage of isolates inhibited at MIC ([2]; 0.008 μg/mL): 2.0%
Number of test isolates at MIC ([2]; 0.008 μg/mL): 1
Cumulative percentage of isolates inhibited at MIC ([2]; 0.015 μg/mL): 1.0%
Number of test isolates at MIC ([2]; 0.015 μg/mL): 1
Cumulative percentage of isolates inhibited at MIC ([2]; 0.03 μg/mL): 42.0%
Number of test isolates at MIC ([2]; 0.03 μg/mL): 19
Cumulative percentage of isolates inhibited at MIC ([2]; 0.06 μg/mL): 58.0%
Number of test isolates at MIC ([2]; 0.06 μg/mL): 8
Cumulative percentage of isolates inhibited at MIC ([2]; 8 μg/mL): 68.0%
Number of test isolates at MIC ([2]; 8 μg/mL): 2
Cumulative percentage of isolates inhibited at MIC ([2]; 16 μg/mL): 72.0%
Number of test isolates at MIC ([2]; 16 μg/mL): 2
Cumulative percentage of isolates inhibited at MIC ([2]; 64 μg/mL): 76.0%
Number of test isolates at MIC ([2]; 64 μg/mL): 2
Cumulative percentage of isolates inhibited at MIC ([2]; >128 μg/mL): 100.0%
Number of test isolates at MIC ([2]; >128 μg/mL): 12
MIC90 ([2]; Escherichia coli): > 128 µg/mL
MIC50 ([2]; Escherichia coli, read-out: MIC50): 0.06 µg/mL (≈ 0.108 µM)
Cumulative percentage of isolates inhibited at MIC ([2]; […]): 64.0%
Number of test isolates at MIC ([2]; […]): 3
% R ([2]; listed as CTR): 36%
MIC90 ([2]; listed as CTR): >128 µg/mL
Average Count [3, 6]: 0 CFU
Count 1 [3, 6]: 0 CFU
Count 2 [3, 6]: 0 CFU
Spontaneous Mutation Frequency [3, 6]: ≤9.52 × 10^−10
MPC ([3]; mutant prevention concentration): 0.25 µg/mL
Spontaneous Mutation Frequency [4]: ≤ 9.52×10^−10
MIC ([5]; E. coli MMX 1312): 4 µg/mL (≈ 7.21 µM)
MIC ([5]; Escherichia coli, MMX1312, broth microdilution, read-out: MIC): 4 µg/mL (≈ 7.21 µM)
